Assay: Solubility of about 10 wt % photoinitiator in alkoxy-containing curable monomers
Format: physicochemical
Conditions: about 10 wt % solutions in each of SR9003, SR209, SR399LV and SR454; about room temperature (approximately 22° C. to 27° C.)
Excerpt: The following monomers were used for testing: 1) SR9003 (propoxylated neopentyl glycol diacrylate), 2) SR209 (tetraethylene glycol dimethacrylate), 3) SR399LV (low viscosity dipentaerythritol pentacrylate esters), and 4) SR454 (ethoxylated trimethylolpropane triacrylate esters).

solubility in monomers: insoluble
SMILES: CC(C)(O)C(=O)c1ccc(OCCO)cc1 [IRGACURE® 2959, 4-(2-hydroxyethyloxy)phenyl-(2-hydroxy-2-propyl) ketone]

Reference: patent US7705065B2, “Photoinitiator functionalized with alkoxy groups” (Xerox Corporation, priority 2007, dated 2010)
